Measurements: ChEMBL document CHEMBL1138083, “Antidyslipidemic activity of furano-flavonoids isolated from Indigofera tinctoria” (2006)
Activity calls are given as the source filed them. The rule behind the calls is not given here.

Experiments:
Type in all cases: functional, Mesocricetus auratus
[1] = tested on: Syrian golden hamster; assay: Increase in HDL cholesterol to total cholesterol level in hamster at 50 mg/kg, po
[2] = tested on: Syrian golden hamster; assay: Increase in HDL cholesterol level in hamster at 50 mg/kg, po
[3] = tested on: Syrian golden hamster; assay: Decrease in free fatty acid in hamster at 50 mg/kg, po; set-up: scale not given: the % may be the effect or the level left
[4] = tested on: Syrian golden hamster; assay: Decrease in total cholesterol level in hamster at 50 mg/kg, po; set-up: scale not given: the % may be the effect or the level left
[5] = tested on: Syrian golden hamster; assay: Decrease in plasma triglyceride level in hamster at 50 mg/kg, po; set-up: scale not given: the % may be the effect or the level left
[6] = tested on: Syrian golden hamster; assay: Decrease in glycerol level in hamster at 50 mg/kg, po; set-up: scale not given: the % may be the effect or the level left
[7] = tested on: Syrian golden hamster; assay: Increase in free fatty acid in hamster at 50 mg/kg, po

| SMILES | Activity [1] [%] | Activity [2] [%] | Activity [3] [%] | Activity [4] [%] | Activity [5] [%] | Activity [6] [%] | Activity ([4]; Mesocricetus auratus) | Activity [7] [%] |
| --- | --- | --- | --- | --- | --- | --- | --- | --- |
| CC(=O)O[C@H]1[C@@H]2c3c(ccc4c(=O)cc(-c5ccccc5)oc34)O[C@@H]2OC1(C)C | 36 | 8 | 25 | 19 | 60 | 13 | – | – |
| CC(=O)OC1C(C)(C)OC(=O)C12COc1ccc3c(=O)cc(-c4ccccc4)oc3c12 (stereo not drawn) | 26 | 28 | – | – | 41 | 6 | inactive | 7 |
| CC(=O)O[C@@H]1[C@@H]2c3c(ccc4c(=O)cc(-c5ccccc5)oc34)O[C@@H]2OC1(C)C | 36 | 8 | 25 | 19 | 60 | 13 | – | – |
